Laboratory results as given in patent publication US10278873B2, “Absorbent article having a domed section and method of manufacturing same” (UNICHARM CORPORATION, priority 2011, dated 2019).

Experiment: Surface tension of blood containing blood modifying agent, pendant drop method (Example 7)
Conditions: 0.10 mass % in sheep defibrinated blood; 35° C.
Procedure: The surface tension of blood containing a blood modifying agent was measured by the pendant drop method, using a Drop Master500 contact angle meter by Kyowa Interface Science Co., Ltd. The surface tension was measured after adding a prescribed amount of blood modifying agent to sheep defibrinated blood, and thoroughly shaking.
The measurement was accomplished automatically with a device, and the […] γ was determined by the following formula (see FIG. 98). γ=g×ρ×(de)^2×1/H
The density ρ was measured at the temperatures listed in Table 5, according to JIS K 2249-1995, “Density test methods and density/mass/volume conversion tables”, “5. Vibrating density test method”.
The measurement was accomplished using a DA-505 by Kyoto Electronics Co., Ltd.

CCCCCCCCCCCCOC(=O)CCCCCCCCCCC [No. 2-18, Ester of dodecanoic acid (C12) and dodecyl alcohol (C12)]
Surface tension (mN/m): 58.8 mN/m
